{"source": "patent US20060167057A1", "about": "“Compounds for the treatment of CNS and amyloid associated diseases” (priority 2004, published 2006)"}
{"target": "T1, L1 transport system (large neutral amino acid carrier, L1-system carrier) (Rattus norvegicus, UniProt Q63016)", "T1 construct": "functionality of their endogenous transporters such as the L1-system carrier; endogenous in cells; host or cells: rat primary cerebrovascular (brain microcapillary) endothelial cells, RBEC", "T1 sequence (Q63016 whole entry)": "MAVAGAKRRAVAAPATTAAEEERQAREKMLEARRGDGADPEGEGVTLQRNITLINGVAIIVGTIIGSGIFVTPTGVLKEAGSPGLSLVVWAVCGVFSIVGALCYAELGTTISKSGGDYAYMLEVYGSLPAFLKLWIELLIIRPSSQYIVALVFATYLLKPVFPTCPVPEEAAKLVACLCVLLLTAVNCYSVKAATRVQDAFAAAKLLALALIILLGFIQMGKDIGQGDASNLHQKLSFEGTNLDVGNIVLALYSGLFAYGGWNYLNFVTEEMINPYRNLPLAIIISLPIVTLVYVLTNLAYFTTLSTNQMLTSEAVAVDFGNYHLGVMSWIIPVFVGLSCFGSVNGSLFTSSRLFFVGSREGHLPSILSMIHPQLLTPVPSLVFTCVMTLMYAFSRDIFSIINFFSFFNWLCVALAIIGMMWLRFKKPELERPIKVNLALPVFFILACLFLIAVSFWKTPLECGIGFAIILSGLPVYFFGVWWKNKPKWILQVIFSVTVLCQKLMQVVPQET", "T1 sequence (Q794F9 whole entry partner)": "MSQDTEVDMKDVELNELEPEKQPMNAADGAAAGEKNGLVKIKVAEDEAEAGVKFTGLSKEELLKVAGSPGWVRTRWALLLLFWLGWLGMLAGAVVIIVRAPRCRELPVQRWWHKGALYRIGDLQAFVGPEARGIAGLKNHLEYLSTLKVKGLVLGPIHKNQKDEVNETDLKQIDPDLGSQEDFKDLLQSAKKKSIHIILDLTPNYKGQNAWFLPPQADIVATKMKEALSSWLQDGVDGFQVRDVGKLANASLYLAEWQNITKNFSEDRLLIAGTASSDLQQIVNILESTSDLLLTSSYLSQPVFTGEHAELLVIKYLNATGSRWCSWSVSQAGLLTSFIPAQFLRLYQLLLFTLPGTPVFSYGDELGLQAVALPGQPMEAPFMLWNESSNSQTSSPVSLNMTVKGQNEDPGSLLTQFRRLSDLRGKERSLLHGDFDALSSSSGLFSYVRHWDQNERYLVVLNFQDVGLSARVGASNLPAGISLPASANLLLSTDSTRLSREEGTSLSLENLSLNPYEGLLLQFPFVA", "assay": "Competitive binding assay to the brain L1 transport system (L-[U-14C]phenylalanine on rat primary cerebrovascular endothelial cells)", "details": "10^−4 M", "experimental": "(§1) Compound samples in PBS (without Ca^+2, Mg^+2)-glucose 30 mM-HEPES 10 mM—DMSO 1% as prepared in Example 1 were thawed and left for at least 30 minutes at 20-23° C. before preparation of the following sub-dilutions for the competitive binding assay: • 200 μL of the stock solution were added to 800 μL PBS (without Ca^+2, Mg^+2)-Glucose-HEPES-1% DMSO (PBSD-1) [diluted 1:5 for a final 1:5 dilution] • 100 μL (1/5 dilution above) were added to 900 μL PBSD-1 [diluted 1:10 for a final 1:50 dilution] • 100 μL (1/50 dilution above) were added to 900 μL PBSD-1 [diluted 1:10 for a final 1:500 dilution]\n(§2) These sub-dilutions were used immediately or stored overnight at 4° C. before the competitive binding assay. A volume of 45 μL of each of the compound dilutions (1:5, 1:50, 1:500) in PBSD-1 was added to the appropriate wells in the dilution plate.\n(§3) Brains from sixty 24-day-old rats were dissected individually on a sterile lint moistened with ice cold Hanks' balanced salt solution (Gibco BRL, Grand Island, N.Y.) containing 10 mM HEPES (medium 1) supplemented with 0.1% BSA. Cerebellum, striatum, optic nerves, and brain stem (white matter) were removed. After a mid-sagittal section of the brain, the meninges and leptomeningeal debris were removed by rolling a sterile dry cotton swab on the cortices. (Ichikawa N, Naora K, Hirano H, Hashimoto M, Masumura S, and Iwamoto K (1996). Isolation and primary culture of rat cerebral microvascular endothelial cells for studying drug transport in vitro. J Pharmacol Toxicol Meth 36: 45-52.). Clean cortices were minced in pieces of ≈2 mm^3 in 15 mL of ice-cold medium 1-0.1% BSA. The preparation was divided into 4 sterile pre-weighed tubes and centrifuged at 330× g at 20-25° C. for 5 min. Tubes were weighed and pre-warmed (37° C.) and medium 1 with 0.5% BSA containing 0.3% collagenase and 10 μg/mL DNAse 1 (Roche, Laval, Quebec, Canada) were added to each tube (1 mL/g of tissue).\n(§4) The brain-collagenase mixture was vigorously agitated in a water bath at 37° C. for 90 min. Fifteen min before the end of the digestion, the tissue was homogenized using a 10-mL pipette until a creamy mixture was obtained (≈20 aspirations). Cells were washed by adding medium 1 with 0.1% BSA to the homogenate (26 mL/tube) and centrifuged at 100× g at 20-25° C. for 7 min. This washing step was repeated 3 more times, once for 5 min and twice for 3 min. Each pellet was re-suspended in 25 mL of a 15% dextran solution prepared in medium 1 with 0.1% BSA and centrifuged at 3200× g at 4° C. for 25 min to isolate vessels from neural tissue and dextran layers. Vascular pellets were re-suspended in 5 mL Ca^++—Mg^++-free-medium 1 with 0.1% BSA (medium 2) at 20-25° C. and transferred in a 50-mL tube. Remaining vessels were collected by rinsing the tubes and pooling the rinsing suspension. (Rupnick M A, Carey A, and Williams S K (1988). Phenotypic diversity in cultured cerebral microvascular endothelial cells in vitro. Cell Develop Biol 24: 435-444.)\n(§5) The vascular preparation was filtered and rinsed (20 mL of medium 2) through a sterile 355-μm mesh. The 355-μm filtrate was sequentially filtered twice (20 mL of medium 2) through sterile 112-μm meshes and rinsed (Stanimirovic D B, Wong J, Ball R, and Durkin J P (1995). Free radical-induced endothelial membrane dysfunction at the site of the blood-brain barrier: relationship between lipid peroxidation, Na,K-ATPase activity, and ^51Cr release. Neurochem Res 20:1417-1427.) and the latter filtrate was filtered and rinsed through a sterile 20-μm mesh. A final step of filtration and rinse was repeated through a double layer of 20-μm meshes. All 20-μm meshes, which retained the microcapillaries, were then transferred into a 50-mL tube containing 20 mL of a 0.1% collagenase/dispase (Roche) solution in medium 2 supplemented with 10 μg/mL DNAse 1 and 0.147 μg/mL tosyl-lysine-chloromethyl-ketone (Sigma Chemical Co., Oakville, Ontario, Canada) (medium 3)."}
{"compound": "NC(Cc1cccc(CN2CCN(c3cccc(Cl)c3)CC2)c1)C(=O)O", "note": "(stereo not drawn) [Compound 71]", "Comparison with the Binding of Phenylalanine": "0 (X < 0 Rank 0)"}
{"compound": "CCOC(=O)c1c[nH]c(Sc2cccc(-c3cccc(CC(N)C(=O)O)c3)c2)nc1=O", "note": "(stereo not drawn) [Compound 72]", "Comparison with the Binding of Phenylalanine": "1 (0 < X < 10 Rank 1)"}
{"compound": "CN(C)CCn1nnnc1SCc1cccc(CC(N)C(=O)O)c1", "note": "(stereo not drawn) [Compound 73]", "Comparison with the Binding of Phenylalanine": "1 (0 < X < 10 Rank 1)"}
{"compound": "NC(Cc1cccc(-c2cccc(Sc3nc(-c4ccccc4)c(-c4ccccc4)[nH]3)c2)c1)C(=O)O", "note": "(stereo not drawn) [Compound 74]", "Comparison with the Binding of Phenylalanine": "0 (X < 0 Rank 0)"}
{"compound": "NC(Cc1cccc(CN2CCN(c3ccc(F)cc3)CC2)c1)C(=O)O", "note": "(stereo not drawn) [Compound 75]", "Comparison with the Binding of Phenylalanine": "0 (X < 0 Rank 0)"}
{"compound": "COc1ccc2[nH]c(Sc3cccc(-c4cccc(CC(N)C(=O)O)c4)c3)nc2c1", "note": "(stereo not drawn) [Compound 76]", "Comparison with the Binding of Phenylalanine": "0 (X < 0 Rank 0)"}
{"compound": "NC(Cc1cccc(CSc2nc3cc([N+](=O)[O-])ccc3[nH]2)c1)C(=O)O", "note": "(stereo not drawn) [Compound 79]", "Comparison with the Binding of Phenylalanine": "2 (10 < X < 20 Rank 2)"}
{"compound": "Cc1nnc(SCc2cccc(CC(N)C(=O)O)c2)s1", "note": "(stereo not drawn) [Compound 81]", "Comparison with the Binding of Phenylalanine": "2 (10 < X < 20 Rank 2)"}
{"compound": "Cn1cnnc1Sc1cccc(-c2cccc(CC(N)C(=O)O)c2)c1", "note": "(stereo not drawn) [Compound 82]", "Comparison with the Binding of Phenylalanine": "2 (10 < X < 20 Rank 2)"}
{"compound": "NC(Cc1cccc(CN2CCN(c3cccc(Cl)c3)CC2)n1)C(=O)O", "note": "(stereo not drawn) [Compound 86]", "Comparison with the Binding of Phenylalanine": "1 (0 < X < 10 Rank 1)"}
{"compound": "CCOC(=O)c1c[nH]c(SCc2ccc(-c3ccc(CC(N)C(=O)O)cc3)cc2)nc1=O", "note": "(stereo not drawn) [Compound 87]", "Comparison with the Binding of Phenylalanine": "2 (10 < X < 20 Rank 2)"}
{"compound": "CN(C)CCn1nnnc1SCc1cccc(CC(N)C(=O)O)n1", "note": "(stereo not drawn) [Compound 88]", "Comparison with the Binding of Phenylalanine": "1 (0 < X < 10 Rank 1)"}
{"target": "T1, L1 transport system (large neutral amino acid carrier, L1-system carrier)", "assay": "Competitive binding assay to the brain L1 transport system (L-[U-14C]phenylalanine on rat primary cerebrovascular endothelial cells)", "details": "10^−5 M", "experimental": "as §1, §2, §3, §4, §5"}
{"compound": "NC(Cc1cccc(CN2CCN(c3cccc(Cl)c3)CC2)c1)C(=O)O", "note": "(stereo not drawn) [Compound 71]", "Comparison with the Binding of Phenylalanine": "0 (X < 0 Rank 0)"}
{"compound": "CCOC(=O)c1c[nH]c(Sc2cccc(-c3cccc(CC(N)C(=O)O)c3)c2)nc1=O", "note": "(stereo not drawn) [Compound 72]", "Comparison with the Binding of Phenylalanine": "2 (10 < X < 20 Rank 2)"}
{"compound": "CN(C)CCn1nnnc1SCc1cccc(CC(N)C(=O)O)c1", "note": "(stereo not drawn) [Compound 73]", "Comparison with the Binding of Phenylalanine": "3 (X > 20 Rank 3)"}
{"compound": "NC(Cc1cccc(-c2cccc(Sc3nc(-c4ccccc4)c(-c4ccccc4)[nH]3)c2)c1)C(=O)O", "note": "(stereo not drawn) [Compound 74]", "Comparison with the Binding of Phenylalanine": "1 (0 < X < 10 Rank 1)"}
{"compound": "NC(Cc1cccc(CN2CCN(c3ccc(F)cc3)CC2)c1)C(=O)O", "note": "(stereo not drawn) [Compound 75]", "Comparison with the Binding of Phenylalanine": "0 (X < 0 Rank 0)"}
{"compound": "COc1ccc2[nH]c(Sc3cccc(-c4cccc(CC(N)C(=O)O)c4)c3)nc2c1", "note": "(stereo not drawn) [Compound 76]", "Comparison with the Binding of Phenylalanine": "0 (X < 0 Rank 0)"}
{"compound": "NC(Cc1cccc(CSc2nc3cc([N+](=O)[O-])ccc3[nH]2)c1)C(=O)O", "note": "(stereo not drawn) [Compound 79]", "Comparison with the Binding of Phenylalanine": "3 (X > 20 Rank 3)"}
{"compound": "Cc1nnc(SCc2cccc(CC(N)C(=O)O)c2)s1", "note": "(stereo not drawn) [Compound 81]", "Comparison with the Binding of Phenylalanine": "3 (X > 20 Rank 3)"}
{"compound": "Cn1cnnc1Sc1cccc(-c2cccc(CC(N)C(=O)O)c2)c1", "note": "(stereo not drawn) [Compound 82]", "Comparison with the Binding of Phenylalanine": "3 (X > 20 Rank 3)"}
{"compound": "NC(Cc1cccc(CN2CCN(c3cccc(Cl)c3)CC2)n1)C(=O)O", "note": "(stereo not drawn) [Compound 86]", "Comparison with the Binding of Phenylalanine": "2 (10 < X < 20 Rank 2)"}
{"compound": "CCOC(=O)c1c[nH]c(SCc2ccc(-c3ccc(CC(N)C(=O)O)cc3)cc2)nc1=O", "note": "(stereo not drawn) [Compound 87]", "Comparison with the Binding of Phenylalanine": "3 (X > 20 Rank 3)"}
{"compound": "CN(C)CCn1nnnc1SCc1cccc(CC(N)C(=O)O)n1", "note": "(stereo not drawn) [Compound 88]", "Comparison with the Binding of Phenylalanine": "1 (0 < X < 10 Rank 1)"}
{"target": "T1, L1 transport system (large neutral amino acid carrier, L1-system carrier)", "assay": "Competitive binding assay to the brain L1 transport system (L-[U-14C]phenylalanine on rat primary cerebrovascular endothelial cells)", "details": "10^−6 M", "experimental": "as §1, §2, §3, §4, §5"}
{"compound": "NC(Cc1cccc(CN2CCN(c3cccc(Cl)c3)CC2)c1)C(=O)O", "note": "(stereo not drawn) [Compound 71]", "Comparison with the Binding of Phenylalanine": "1 (0 < X < 10 Rank 1)"}
{"compound": "CCOC(=O)c1c[nH]c(Sc2cccc(-c3cccc(CC(N)C(=O)O)c3)c2)nc1=O", "note": "(stereo not drawn) [Compound 72]", "Comparison with the Binding of Phenylalanine": "1 (0 < X < 10 Rank 1)"}
{"compound": "CN(C)CCn1nnnc1SCc1cccc(CC(N)C(=O)O)c1", "note": "(stereo not drawn) [Compound 73]", "Comparison with the Binding of Phenylalanine": "1 (0 < X < 10 Rank 1)"}
{"compound": "NC(Cc1cccc(-c2cccc(Sc3nc(-c4ccccc4)c(-c4ccccc4)[nH]3)c2)c1)C(=O)O", "note": "(stereo not drawn) [Compound 74]", "Comparison with the Binding of Phenylalanine": "1 (0 < X < 10 Rank 1)"}
{"compound": "NC(Cc1cccc(CN2CCN(c3ccc(F)cc3)CC2)c1)C(=O)O", "note": "(stereo not drawn) [Compound 75]", "Comparison with the Binding of Phenylalanine": "1 (0 < X < 10 Rank 1)"}
{"compound": "COc1ccc2[nH]c(Sc3cccc(-c4cccc(CC(N)C(=O)O)c4)c3)nc2c1", "note": "(stereo not drawn) [Compound 76]", "Comparison with the Binding of Phenylalanine": "1 (0 < X < 10 Rank 1)"}
{"compound": "NC(Cc1cccc(CSc2nc3cc([N+](=O)[O-])ccc3[nH]2)c1)C(=O)O", "note": "(stereo not drawn) [Compound 79]", "Comparison with the Binding of Phenylalanine": "0 (X < 0 Rank 0)"}
{"compound": "Cc1nnc(SCc2cccc(CC(N)C(=O)O)c2)s1", "note": "(stereo not drawn) [Compound 81]", "Comparison with the Binding of Phenylalanine": "0 (X < 0 Rank 0)"}
{"compound": "Cn1cnnc1Sc1cccc(-c2cccc(CC(N)C(=O)O)c2)c1", "note": "(stereo not drawn) [Compound 82]", "Comparison with the Binding of Phenylalanine": "1 (0 < X < 10 Rank 1)"}
{"compound": "NC(Cc1cccc(CN2CCN(c3cccc(Cl)c3)CC2)n1)C(=O)O", "note": "(stereo not drawn) [Compound 86]", "Comparison with the Binding of Phenylalanine": "1 (0 < X < 10 Rank 1)"}
{"compound": "CCOC(=O)c1c[nH]c(SCc2ccc(-c3ccc(CC(N)C(=O)O)cc3)cc2)nc1=O", "note": "(stereo not drawn) [Compound 87]", "Comparison with the Binding of Phenylalanine": "3 (X > 20 Rank 3)"}
{"compound": "CN(C)CCn1nnnc1SCc1cccc(CC(N)C(=O)O)n1", "note": "(stereo not drawn) [Compound 88]", "Comparison with the Binding of Phenylalanine": "1 (0 < X < 10 Rank 1)"}
